The source of these data is patent US20120022054A1, “NOVEL SUBSTITUTED ARYL DERIVATIVES, THEIR PROCESS OF PREPARATION AND THEIR THERAPEUTICAL USES AS ANTI-HIV AGENTS” (priority 2008, published 2012).

One may read the EC50 as the concentration needed to bring the measured effect to its halfway point.

Test [1] concerns Env-deleted NL4-3 vector virus pseudotyped with the VSV g envelope. As to the kind of experiment: microbe, parasite or virus in culture. Format: cell-based, HIV-1. To be noted: Vesicular stomatitis virus, NL43, SUP-T1, 48 h, read-out: EC50 for antiviral activity (50% inhibition of luciferase activity).
In the next test the test system is NL4-3 strain of HIV-1. As to the kind of experiment: Multiple cycle infection assay of CAp24 antigen production. Format: cell-based. To be noted: Human immunodeficiency virus 1, NL43, SUP-T1, 96 h, multiple cycle infection with NL4-3 virus, SupT1, MT4 or PBMC, MOI 0.01, day 4 and day −6 post-infection; threshold below 5 μM; read-out: EC50 for antiviral activity (50% inhibition of CA p24 production).

SMILES strings stand for the structures.

Regarding `CN(Cc1cccc2c1OCC2)C(=O)CCCSc1ccc(O)cc1` [Example 22, N-(2,3-Dihydro-1-benzofuran-7-ylmethyl)-4-[(4-hydroxyphenyl)thio]-N-methylbutanamide], the concentration for a half-maximal effect (EC50) (in test [1]; in the test on NL4-3 strain of HIV-1) was less than 5 µM throughout.
As to `COCc1ccccc1CN(C)C(=O)CCCSc1ccc(O)cc1` [Example 65, 4-[(4-Hydroxyphenyl)thio]-N-[2-(methoxymethyl)benzyl]-N-methylbutanamide], the EC50 (in test [1]; in the test on NL4-3 strain of HIV-1) was less than 5 µM in each case.
For `COc1ccccc1CN(C)C(=S)CCCSc1ccc(O)cc1` [Example 164, 4-[(4-Hydroxyphenyl)thio]-N-(2-methoxybenzyl)-N-methylbutanethioamide], the EC50 (in test [1]; with NL4-3 strain of HIV-1) was less than 5 µM throughout.
As for `CN(Cc1ccccc1-c1ccco1)C(=O)CCCSc1ccc(F)cc1` [Example 95, 4-[(4-fluorophenyl)thio]-N-[2-(2-furyl)benzyl]-N-methylbutanamide], the EC50 (in test [1]; with NL4-3 strain of HIV-1) was less than 5 µM throughout.
As for `CCOC(=O)c1cc(F)ccc1SCCCC(=O)N(C)c1cccc(F)c1` [Example 193, Ethyl 5-fluoro-2-({4-[(3-fluorophenyl)(methyl)amino]-4-oxobutyl}thio)benzoate], the concentration for a half-maximal effect (EC50) (in test [1]; in the test on NL4-3 strain of HIV-1) was less than 5 µM in each case.
Take `COc1ccc(SCCCC(=O)N(C)Cc2cc(F)ccc2OC(C)C)cc1` [Example 117, N-(5-fluoro-2-isopropoxybenzyl)-4-[(4-methoxyphenyl)thio]-N-methylbutanamide]: the EC50 (in test [1]; in the test on NL4-3 strain of HIV-1) was less than 5 µM throughout.
For `COc1ccc(SCCCC(=O)N(C)Cc2ccccc2OC)cc1` [Example 42, N-(2-Methoxybenzyl)-4-[(4-methoxyphenyl)thio]-N-methylbutanamide], the half-maximal effective concentration (EC50) (in test [1]; in the test on NL4-3 strain of HIV-1) was less than 5 µM each time.
Regarding `COc1ccc(SCCCC(=O)N(C)Cc2cc(C)ccc2OC)cc1` [Example 119, 4-[(4-methoxyphenyl)thio]-N-[2-methoxy-5-methylbenzyl]-N-methylbutanamide], the EC50 (in test [1]; in the test on NL4-3 strain of HIV-1) was less than 5 µM throughout.
For the molecule `COc1c(Cl)cc(Cl)cc1CN(C)C(=O)CCCSc1ccc(O)cc1` [Example 74, N-(3,5-Dichloro-2-methoxybenzyl)-4-[(4-hydroxyphenyl)thio]-N-methylbutanamide], the EC50 (in test [1]; in the test on NL4-3 strain of HIV-1) was less than 5 µM throughout.
As for `COc1ccccc1CN(C)C(=O)CCCCc1ccc(O)cc1` [Example 19, 5-(4-Hydroxyphenyl)-N-(2-methoxybenzyl)-N-methylpentanamide], the EC50 (in test [1]; in the test with NL4-3 strain of HIV-1) was less than 5 µM in each case.
For `COC(=O)c1ccc(SCCCC(=O)N(C)Cc2cc(F)ccc2OC)cc1` [Example 147, Methyl 4-({4-[(5-fluoro-2-methoxybenzyl)methylamino]-4-oxobutyl}thio)benzoate], the EC50 (in test [1]; in the test on NL4-3 strain of HIV-1) was less than 5 µM in each case.
Take `COc1ccccc1CN(C)C(=O)CCCSc1cccc(O)c1` [Example 26, 4-[(3-hydroxyphenyl)thio]-N-(2-methoxybenzyl)-N-methylbutanamide]: the EC50 (in test [1]; in the test with NL4-3 strain of HIV-1) was less than 5 µM each time.
As for `CN(Cc1cccc(Cl)c1Cl)C(=O)CCCSc1ccc(O)cc1` [Example 34, N-(2,3-Dichlorobenzyl)-4-[(4-hydroxyphenyl)thio]-N-methylbutanamide], the EC50 (in test [1]; in the test with NL4-3 strain of HIV-1) was less than 5 µM each time.
For the molecule `COc1ccccc1N(C)C(=O)CCCSc1ccc(F)cc1` [Example 126, 4-[(4-Fluorophenyl)thio]-N-(2-methoxyphenyl)-N-methylbutanamide], the EC50 (in test [1]; in the test with NL4-3 strain of HIV-1) was less than 5 µM throughout.
As to `CN(Cc1cc(F)cc2c1OCOC2)C(=O)CCCSc1ccc(F)cc1` [Example 96, N-[(6-fluoro-4H-1,3-benzodioxin-8-yl)methyl]-4-[(4-fluorophenyl)thio]-N-methylbutanamide], the concentration giving a half-maximal response (EC50) (in test [1]; in the test on NL4-3 strain of HIV-1) was less than 5 µM each time.
Consider `CN(Cc1ccccc1N1CCN(CCN2CCOCC2)CC1)C(=O)CCCSc1ccc(O)cc1` [Example 53, 4-[(4-Hydroxyphenyl)thio]-N-methyl-N-{2-[4-(2-morpholin-4-ylethyl)piperazin-1-yl]benzyl}butanamide], for which the EC50 (in test [1]; in the test on NL4-3 strain of HIV-1) was less than 5 µM in each case.
As to `COc1ccccc1CN(C)C(=O)CCCSc1ccc(NS(C)(=O)=O)cc1` [Example 93, N-(2-Methoxybenzyl)-N-methyl-4-{[4-(methylsulfonylamino)phenyl]thio}butanamide], the EC50 (in test [1]; with NL4-3 strain of HIV-1) was less than 5 µM in each case.
With `CCOC(=O)N1CCN(c2ccccc2CN(C)C(=O)CCCSc2ccc(O)cc2)CC1` [Example 47, Ethyl 4-[2-({4-[(4-hydroxyphenyl)thio]butanoyl}methylamino)methylphenyl]-piperazine-1-carboxylate], the 50% effective concentration (EC50) (in test [1]; with NL4-3 strain of HIV-1) was less than 5 µM each time.
`COc1ccccc1CN(C)C(=O)CCCSc1ccc(O)cc1` [Example 35, 4-[(4-Hydroxyphenyl)thio]-N-(2-methoxybenzyl)-N-methylbutanamide]: the EC50 (in test [1]; with NL4-3 strain of HIV-1) was less than 5 µM each time.
On to `CN(Cc1c(F)cccc1Cl)C(=O)CCCSc1ccc(O)cc1` [Example 31, N-(2-chloro-6-fluorobenzyl)-4-[(4-hydroxyphenyl)thio]-N-methylbutanamide], for which the EC50 (in test [1]; in the test on NL4-3 strain of HIV-1) was less than 5 µM throughout.
For the molecule `COc1ccccc1CN(C)C(=O)CCCSc1ccc2ccccc2c1` [Example 17, N-(2-Methoxybenzyl)-N-methyl-4-(2-naphthylthio)butanamide], the half-maximal effective concentration (EC50) (in test [1]; in the test with NL4-3 strain of HIV-1) was less than 5 µM each time.
For the molecule `COc1c(C)cccc1CN(C)C(=O)CCCSc1ccc(O)cc1` [Example 69, 4-[(4-Hydroxyphenyl)thio]-N-(2-methoxy-3-methylbenzyl)-N-methylbutanamide], the EC50 (in test [1]; with NL4-3 strain of HIV-1) was less than 5 µM in each case.
With `COc1ccc(-n2cccn2)c(CN(C)C(=O)CCCSc2ccc(F)cc2)c1` [Example 98, 4-[(4-fluorophenyl)thio]-N-[5-methoxy-2-(pyrazol-1-yl)benzyl]-N-methylbutanamide], the EC50 (in test [1]; in the test on NL4-3 strain of HIV-1) was less than 5 µM in each case.
With `CN(Cc1ccccc1Cl)C(=O)CCCSc1ccc(F)cc1` [Example 14, N-(2-Chlorobenzyl)-4-[(4-fluorophenyl)thio]-N-methylbutanamide], the EC50 (in test [1]; with NL4-3 strain of HIV-1) was less than 5 µM in each case.
Regarding `COc1ccc(C)cc1CN(C)C(=O)CCCn1ccc2ccc(F)cc21` [Example 121, 4-(6-fluoro-1H-indol-1-yl)-N-(2-methoxy-5-methylbenzyl)-N-methylbutanamide], the EC50 (in test [1]; in the test with NL4-3 strain of HIV-1) was less than 5 µM in each case.
Take `COc1ccc([S+]([O-])CCCC(=O)N(C)c2nccc3ccccc23)cc1` (stereo not drawn) [Example 133, N-isoquinolin-1-yl-4-[(4-methoxyphenyl)sulfinyl]-N-methylbutanamide]: the EC50 (in test [1]; in the test on NL4-3 strain of HIV-1) was less than 5 µM in each case.
In the case of `CN(Cc1ccccc1C(F)(F)F)C(=O)CCCSc1ccc(O)cc1` [Example 15, 4-[(4-Hydroxyphenyl)thio]-N-methyl-N-[2-(trifluoromethyl)benzyl]butanamide], the EC50 (in test [1]; in the test with NL4-3 strain of HIV-1) was less than 5 µM throughout.
